Literature values as cited in patent publication US9066860B2, “Oil-in-water emulsified composition” (SHISEIDO COMPANY, LTD., priority 2009, dated 2015).

Conditions: background art statement
In the case of CCCCC(CC)COC(=O)C=Cc1ccc(OC)cc1 (stereo not drawn) [2-ethylhexyl p-methoxycinnamate], the “Maximum (peak) absorption wavelength” value is given as about 310 nm.
In the case of CCCCC(CC)COC(=O)c1ccc(N(C)C)cc1 (stereo not drawn) [2-ethylhexyl-p-dimethylaminobenzoate], the “Maximum (peak) absorption wavelength” value is given as about 290 nm.
For COc1ccc(C(=O)CC(=O)c2ccc(C(C)(C)C)cc2)cc1 [4-tert-butyl-4′-methoxydibenzoylmethane], the “Maximum (peak) absorption wavelength” value is listed as “around 360 nm”.
